Reference: article PMC10997755, “Discovery of a small-molecule inhibitor that traps Polθ on DNA and synergizes with PARP inhibitors” (Nature Communications, 2024)
Values joined by “and” are separate entries in the source; they are usually repeats but may differ in a detail not shown here. Equal values may be shown once. “Also recorded” adds a separate entry of the source.

Experiments:
Polθ-pol = biological target: T1, Polθ-pol (Homo sapiens, UniProt O75417); test: Cy5 fluorescence Polθ-pol DNA synthesis (strand displacement) IC50 assay; format: biochemical; details: for IC50: Polθ-pol DNA synthesis, Cy5 fluorescence
T1 construct: purified recombinant human Polθ-pol (comprising amino acid residues 1792–2590); made in house
T1 sequence (O75417 1792-2590): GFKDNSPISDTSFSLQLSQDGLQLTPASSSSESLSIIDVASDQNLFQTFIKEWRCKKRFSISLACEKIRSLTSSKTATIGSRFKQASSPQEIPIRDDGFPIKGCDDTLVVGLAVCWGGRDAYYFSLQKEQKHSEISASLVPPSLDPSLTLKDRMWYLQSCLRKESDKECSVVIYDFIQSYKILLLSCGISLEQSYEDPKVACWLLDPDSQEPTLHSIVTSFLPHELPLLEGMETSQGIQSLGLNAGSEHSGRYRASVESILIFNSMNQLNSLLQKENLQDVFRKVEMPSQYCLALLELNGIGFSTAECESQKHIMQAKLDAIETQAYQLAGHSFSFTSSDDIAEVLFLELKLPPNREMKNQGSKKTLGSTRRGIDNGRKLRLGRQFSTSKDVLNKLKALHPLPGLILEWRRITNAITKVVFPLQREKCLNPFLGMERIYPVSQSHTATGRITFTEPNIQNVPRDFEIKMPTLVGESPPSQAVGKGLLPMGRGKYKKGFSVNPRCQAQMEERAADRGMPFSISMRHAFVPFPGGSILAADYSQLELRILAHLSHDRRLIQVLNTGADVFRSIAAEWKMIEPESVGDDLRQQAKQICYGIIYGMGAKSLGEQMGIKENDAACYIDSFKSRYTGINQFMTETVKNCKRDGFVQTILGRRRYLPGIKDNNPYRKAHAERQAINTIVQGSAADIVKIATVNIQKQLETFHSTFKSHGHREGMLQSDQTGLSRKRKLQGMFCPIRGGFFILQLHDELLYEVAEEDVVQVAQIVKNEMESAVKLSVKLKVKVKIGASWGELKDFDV
Summary of the method: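 Recombinant human Polθ-pol (aa 1792–2590, 5 nM) extends 60 nM Cy5/quencher primer-template with 50 uM dNTPs in 25 mM Tris pH 7.8, 10 mM MgCl2, 2.5% DMSO at 37 °C. After 18 min, stopped with 20 mM EDTA; Cy5 fluorescence read, 7-point series in triplicate, inhibition from the mean.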

LogP = format: physicochemical; details: method not stated
DLD1 BRCA2 -/- cells = test: Clonogenic assay; format: cell-based; details: for Average (colonies): DLD1 BRCA2 -/-
Summary of the method: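 Cells seeded at low density (300–1000 per well, by plate size and genotype), medium changed every 2 days, colonies grown 10–12 days. Fixed in water:ethanol:acetic acid, stained with 0.5% crystal violet, then counted; IC50 from ≥3 independent experiments, mean ± SEM.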

DLD1 Parental cells = test: Clonogenic assay; format: cell-based; details: DLD1 Parental
Method: Cells were plated on six or twelve or twenty-four well plates. In six well plate, 1000 cells/ well of BRCA2 -/-, BRCA1 -/-, PALB2 mut and 500 cells/ well of wildtype pair was plated; In twelve well plate, 600 cells/ well of BRCA2 -/-, BRCA1 -/-, PALB2 mut and 400 cells/ well of wildtype pair was plated; In twenty-four well plate, 500 cells/ well of BRCA2 -/-, BRCA1 -/-, PALB2 mut and 300 cells/ well of wildtype pair was plated. For MEFs, 300 cells per well in six-well plate were seeded. The medium was replaced every 2 days until the colonies were ready for staining in 10–12 days. For staining: Medium was removed from plates, and cells were rinsed with PBS. Fixation was carried out with—Water: Ethanol: Acetic acid (5:4:1) for 30 min followed by staining of colonies with 0.5% crystal violet in Water: Ethanol (3:2) for 2 h at room temperature. The plates were rinsed with water and left for drying overnight at room temperature. Colonies were then counted and IC50 was calculated using results from 3 or more independent experiments. Response curves are shown as mean colony formation +/- S.E.M.

[1] = 10 μM compound, 5 nM PolQ, 60 nM DNA, 18 min

## CN(C(=O)Oc1ccc(C(F)(F)F)cc1C(F)(F)F)c1ccc(F)cc1 [MC160385]
Polθ-pol
  improved potency relative to hit MC28003: ~ 18 fold
  IC50: 9 nM
Polθ-pol; [1]
  raw signal, Positive Control, Average: 21.00
  raw signal, Positive Control, Trial 1-3: 20.96 and 21.46 and 20.58
Polθ-pol; MC160385 0.0014 μM, 5 nM PolQ
  Cy5 fluorescence, Average of Trial 1-3: 363.79
Polθ-pol; MC160385 0.0041 μM
  activity at 0.0041 µM: 77.8%
  inhibition at 0.0041 µM: 22.2%
Polθ-pol; MC160385 0.0041 μM, 5 nM PolQ
  Cy5 fluorescence, Average of Trial 1-3: 309.29
Polθ-pol; MC160385 0.0123 μM
  activity at 0.0123 µM: 38.7%
  inhibition at 0.0123 µM: 61.3%
Polθ-pol; MC160385 0.0123 μM, 5 nM PolQ
  Cy5 fluorescence, Average of Trial 1-3: 203.69
Polθ-pol; MC160385 0.0370 μM
  activity at 0.037 µM: 3.23%
  inhibition at 0.037 µM: 96.8%
Polθ-pol; MC160385 0.0370 μM, 5 nM PolQ
  Cy5 fluorescence, Average of Trial 1-3: 109.39
Polθ-pol; MC160385 0.1111 μM
  activity at 0.1111 µM: -2.07%
  inhibition at 0.1111 µM: 102%
Polθ-pol; MC160385 0.1111 μM, 5 nM PolQ
  Cy5 fluorescence, Average of Trial 1-3: 94.78
Polθ-pol; MC160385 0.3333 μM
  activity at 0.3333 µM: -2.9%
  inhibition at 0.3333 µM: 103%
Polθ-pol; MC160385 0.3333 μM, 5 nM PolQ
  Cy5 fluorescence, Average of Trial 1-3: 92.26
Polθ-pol; MC160385 1.0000 μM
  activity at 1 µM: -1.58%
  inhibition at 1 µM: 102%
Polθ-pol; MC160385 1.0000 μM, 5 nM PolQ
  Cy5 fluorescence, Average of Trial 1-3: 95.83
Polθ-pol; MC160385 2 μM, sheet Fig. 1 b
  Positive Control fluorescence, Average: 100.15
Polθ-pol; MC160385 10 μM, 5 nM PolQ, 18 min, sheet Fig. 1 g
  Positive Control fluorescence, Average: 33.58
LogP
  logP: ~5.3
DLD1 BRCA2 -/- cells; colony survival, versus BRCA2-WT
  selective killing / synthetic lethality in BRCA2-null DLD1 cells: failed to show selective killing; also recorded: failure

## Nc1ccc(C#CCN(C(=O)Cc2ncc(C(F)(F)F)cc2C(F)(F)F)c2ccc(F)cc2)nn1 [RP6685, reference compound]
Polθ-pol
  IC50: 6.9 nM
DLD1 Parental cells; 0.375 uM, block 1 of sheet
  Average (colonies): 72.6667
DLD1 Parental cells; 0.375 uM, block 2 of sheet
  Average (colonies): 75
DLD1 Parental cells; 0.375 uM, block 3 of sheet
  Average (colonies): 87
DLD1 Parental cells; 0.375 uM, block 4 of sheet
  Average (colonies): 63.6667
DLD1 Parental cells; 0.75 uM, block 1 of sheet
  Average (colonies): 55.3333
DLD1 Parental cells; 0.75 uM, block 2 of sheet
  Average (colonies): 76
DLD1 Parental cells; 0.75 uM, block 3 of sheet
  Average (colonies): 85.6667
DLD1 Parental cells; 0.75 uM, block 4 of sheet
  Average (colonies): 65.6667
DLD1 Parental cells; 1.5 uM, block 1 of sheet
  Average (colonies): 59.3333
DLD1 Parental cells; 1.5 uM, block 2 of sheet
  Average (colonies): 75
DLD1 Parental cells; 1.5 uM, block 3 of sheet
  Average (colonies): 80
DLD1 Parental cells; 1.5 uM, block 4 of sheet
  Average (colonies): 63.3333
DLD1 Parental cells; 3 uM, block 1 of sheet
  Average (colonies): 73
DLD1 Parental cells; 3 uM, block 2 of sheet
  Average (colonies): 75.6667
DLD1 Parental cells; 3 uM, block 3 of sheet
  Average (colonies): 85.6667
DLD1 Parental cells; 3 uM, block 4 of sheet
  Average (colonies): 65.6667
DLD1 Parental cells; 6 uM, block 1 of sheet
  Average (colonies): 74
DLD1 Parental cells; 6 uM, block 2 of sheet
  Average (colonies): 74.3333
DLD1 Parental cells; 6 uM, block 3 of sheet
  Average (colonies): 84
DLD1 Parental cells; 6 uM, block 4 of sheet
  Average (colonies): 64
DLD1 Parental cells; 12 uM, block 1 of sheet
  Average (colonies): 60.6667
DLD1 Parental cells; 12 uM, block 2 of sheet
  Average (colonies): 75
DLD1 Parental cells; 12 uM, block 3 of sheet
  Average (colonies): 81
DLD1 Parental cells; 12 uM, block 4 of sheet
  Average (colonies): 64.3333
DLD1 BRCA2 -/- cells; 0.375 uM, block 1 of sheet
  Average (colonies): 44.6667
DLD1 BRCA2 -/- cells; 0.375 uM, block 2 of sheet
  Average (colonies): 14.6667
DLD1 BRCA2 -/- cells; 0.375 uM, block 3 of sheet
  Average (colonies): 52
DLD1 BRCA2 -/- cells; 0.375 uM, block 4 of sheet
  Average (colonies): 52
DLD1 BRCA2 -/- cells; 0.75 uM, block 1 of sheet
  Average (colonies): 42.3333
DLD1 BRCA2 -/- cells; 0.75 uM, block 2 of sheet
  Average (colonies): 10.3333
DLD1 BRCA2 -/- cells; 0.75 uM, block 3 of sheet
  Average (colonies): 48.3333
DLD1 BRCA2 -/- cells; 0.75 uM, block 4 of sheet
  Average (colonies): 49.6667
DLD1 BRCA2 -/- cells; 1.5 uM, block 1 of sheet
  Average (colonies): 34
DLD1 BRCA2 -/- cells; 1.5 uM, block 2 of sheet
  Average (colonies): 7.333
DLD1 BRCA2 -/- cells; 1.5 uM, block 3 of sheet
  Average (colonies): 43.6667
DLD1 BRCA2 -/- cells; 1.5 uM, block 4 of sheet
  Average (colonies): 41.6667
DLD1 BRCA2 -/- cells; 3 uM, block 1 of sheet
  Average (colonies): 34.3333
DLD1 BRCA2 -/- cells; 3 uM, block 2 of sheet
  Average (colonies): 4
DLD1 BRCA2 -/- cells; 3 uM, block 3 of sheet
  Average (colonies): 33.6667
DLD1 BRCA2 -/- cells; 3 uM, block 4 of sheet
  Average (colonies): 36.3333
DLD1 BRCA2 -/- cells; 6 uM, block 1 of sheet
  Average (colonies): 30
DLD1 BRCA2 -/- cells; 6 uM, block 2 of sheet
  Average (colonies): 4
DLD1 BRCA2 -/- cells; 6 uM, block 3 of sheet
  Average (colonies): 31
DLD1 BRCA2 -/- cells; 6 uM, block 4 of sheet
  Average (colonies): 28
DLD1 BRCA2 -/- cells; 12 uM, block 1 of sheet
  Average (colonies): 25
DLD1 BRCA2 -/- cells; 12 uM, block 2 of sheet
  Average (colonies): 2
DLD1 BRCA2 -/- cells; 12 uM, block 3 of sheet
  Average (colonies): 21.3333
DLD1 BRCA2 -/- cells; 12 uM, block 4 of sheet
  Average (colonies): 9.333
DLD1 BRCA2 -/- cells; DLD1 cells, label beside BRCA2-null curve, read-out: IC50 clonogenic survival
  IC50: ~4500 nM
DLD1 BRCA2 -/- cells; clonogenic survival
  potency in BRCA2-null cells compared with RTx-161: slightly reduced potency
